{"source": "patent US20260337212A1", "about": "“IP4-4,6 SUBSTITUTED DERIVATIVE COMPOUNDS FOR USE IN THE TREATMENT, INHIBITION OF PROGRESSION, AND PREVENTION OF ECTOPIC CALCIFICATION” (SANIFIT THERAPEUTICS, S.A., priority 2022, published 2026)", "assay": "Rat vitamin D3 model: tissue calcium content (ICP-OES)", "type": "in vivo, Sprague Dawley rat", "conditions": "5, 15, 45 mg/kg s.c. daily D1-D13", "method": "FIG. 12 represents the mean calcium content (±SD) in Sham rats (no VitD3 treatment) and rats treated with vehicle or Compound 27 (5, 15, and 45 mg/kg) in (A) aorta, (B) heart, (C) femoral artery, (D) carotid arteries, and (E) kidney. For femoral and carotid arteries, the mean of the calcium content in left and right vessels was used. Statistical analysis: One-way ANOVA with Fisher's LSD test for post-hoc comparisons. (#) indicates significant differences vs. sham, (*) indicates significant differences vs vehicle, (§) indicates significant differences vs Compound 27 5 mg/kg (only applies to other Compound 27 doses), (¥) indicates significant differences vs Compound 27 15 mg/kg (only applies to Compound 27 45 mg/kg), p<0.05. N=7-12 animals/group.\nThe model evaluated the effects of Compound 27 on tissue calcification, blood perfusion, and walking ability in rats for a duration of 13 days. Tissue calcification was induced in groups 2-5 from D1 to D3. Animals induced with calcification were administered placebo or active agent formulations from D1 onwards to assess their effects in preventing calcification. The impact of treatment on tissue calcification, blood perfusion, and walking ability was evaluated. Observations were taken at several points during the treatment from D0 to D13. All animals were weighed every day before treatment.\nFifty-eight male Sprague Dawley (SD) rats (Envigo Corp., Huntingdon, GB) weighing approximately 275-300 g were used. The animals were fed with a standard LASQCdiet® Rod14-H4 diet (LASvendi, Soest, DE). The animals were divided in 5 groups, 10 to 12 animals per group, as follows: • Group 1—Control (sham), 10 animals • Group 2—Physiological saline solution (placebo) daily, 12 animals • Group 3—Compound 27, 5 mg/kg daily, 12 animals • Group 4—Compound 27, 15 mg/kg daily, 12 animals • Group 5—Compound 27, 45 mg/kg daily, 12 animals\nCalcification was induced in the animals of groups 2-5 by subcutaneous administration of 120,000 IU/kg vitamin D3 (cholecalciferol, Duphafral D3 1000; Zoetis Inc., Parsippany, NJ, US) in physiological saline 0.9% (w/v) NaCl solution (2 mL/kg) daily from D1 to D3. Animals in group 1 were administered 2 mL/kg of physiological saline solution daily from D1 to D3 via subcutaneous route with no vitamin D3. Animals in group 2 were administered 2 mL/kg of physiological saline solution daily from D1 to D13 via subcutaneous route. Animals in groups 3, 4, and 5 were administered 5 mg/kg, 15 mg/kg, and 45 mg/kg, respectively, of Compound 27 (754.45 g/mol free acid) daily in physiological saline solution (2 mL/kg) from D1 to D13 via subcutaneous route.\nAll the living animals of groups 1-5 were sacrificed in D13 for determining their Ca values in tissue (i.e., aorta, carotids, femoral, heart, kidney).\nThe animals were exsanguinated before sacrifice. Their necropsies were performed, and their whole right and left femoral arteries, left and right carotids, aorta, heart, and right kidney were collected for calcium content measurement. The tissues were lyophilized for 24 h and weighed. The lyophilized tissues were then digested using a 1:1 HNO3:HClO4 mixture in a dry bath incubator for 2-4 h at 180° C. The digested tissues were subsequently diluted using ultra-pure Milli-Q water (MilliporeSigma, Merck KGaA, Burlington, MA, US) to a final volume of 5 mL (for femoral and carotid) or 10 mL (for heart, kidney and aorta). Calcium content was quantified via inductively coupled plasma optical emission spectrometry (ICP-OES) using an Optima 7300 DV ICP-OES System spectrometer (PerkinElmer, Inc., Waltham, MA, US) according to the manufacturer's instructions.", "data": [{"substance": "4,6-O-bis(5-acetamidopentyl)-myo-inositol-1,2,3,5-tetrakis(phosphate) octasodium salt [Compound 27]", "values": [{"measurement": "Inhibition of ectopic calcification in all evaluated tissues", "setting": "aorta, carotids, femoral, heart, kidney", "result": "inhibits ectopic calcification in all the evaluated tissues"}, {"measurement": "Inhibition of calcification in aorta", "setting": "aorta, FIG. 12A", "result": "observed at 45 mg/kg"}, {"measurement": "Inhibition of calcification in the carotids", "setting": "carotids, FIG. 12D", "result": "observed at 45 mg/kg"}, {"measurement": "Inhibition of calcification in the femoral arteries", "setting": "femoral arteries, FIG. 12C", "result": "dose-response effect from 5 mg/kg"}, {"measurement": "Inhibition of calcification in the heart", "setting": "heart, FIG. 12B", "result": "dose-response effect from 5 mg/kg"}, {"measurement": "Inhibition of calcification in the kidneys", "setting": "kidney, FIG. 12E", "result": "dose-response effect from 5 mg/kg"}]}]}
